Source: patent publication US12570657B2, “Mesylate salts of heterocyclic cytokinins, compositions containing these derivatives and use thereof” (UNIVERZITA PALACKEHO V OLOMOUCI, priority 2020, dated 2026)
Counter-ions that a name gives are not always drawn.

Experiments:
[1] = tested on: winter wheat leaf segments; assay: Senescence bioassay: retention of chlorophyll in excised winter wheat leaf tips; format: in vivo, Triticum aestivum cv. Hereward; settings: for activity (%) [10^−4 mol · l^−1 BAP = 100%]: chlorophyll retention at concentration with highest activity, 10^−4 M BAP = 100%; for concentration with highest activity: chlorophyll retention, excised wheat leaf tips, 96 h dark
Protocol: Seeds of winter wheat, Triticum aestivum cv. Hereward, were washed under running water for 24 hours and then sown on vermiculite soaked with Knop's solution. They were placed in a growth chamber at 25° C. with a 16/8 h light/dark period at 50 μmol·m^−2·s^−1. After 7 days, the first leaf was fully developed and the second leaf had started to grow. A tip section of the first leaf, approximately 35 mm long, was removed from 5 seedlings and trimmed slightly to a combined weight of 100 mg. The basal ends of the five leaf tips were placed in the wells of a microtiter polystyrene plate containing 150 μl of each tested compound solution. The entire plate was inserted into a plastic box lined with paper tissues soaked in distilled water to prevent leaf sections from drying out. After 96 h incubation in the dark at 25° C., the leaves were removed and chlorophyll extracted by heating at 80° C. for 10 min in 5 ml of 80% ethanol (v/v). The sample volume was then restored to 5 ml by the addition of 80% ethanol (v/v). The absorbance of the extract was recorded at 665 nm. In addition, chlorophyll extracts from fresh leaves and leaf tips incubated in deionised water were measured. […] Relative activity of the compound at this concentration was calculated (Tab. 3). The activity obtained for 10^−4 M 6-benzylaminopurine (BAP) was postulated as 100%. The values shown are means of five replicates and the whole experiment was repeated twice. The tested cytokinin bases were dissolved in dimethylsulfoxide (DMSO) and the solution brought up to 10^−3 M with distilled water. Cytokinin mesylate salts which are more water-soluble (BAP mesylate, meta-topolin mesylate and kinetin mesylate) could be directly dissolved to form a 10^−3 M solution in distilled water.

[2] = tested on: cytokinin-dependent tobacco callus; assay: Tobacco callus biotest (stimulation of plant cell division); format: cell-based, Nicotiana tabacum L. cv. Wisconsin 38; settings: callus growth at concentration with highest activity; 10^−5 M BAP = 100%
Protocol: Stimulation effect of the cytokinin mesylates was tested in tobacco callus biotest using cytokinin dependent tobacco callus. Cytokinin-dependent tobacco callus Nicotiana tabacum L. cv. […] Subcultivation was carried out every three weeks. Fourteen days before the bioassay, the callus tissue was transferred to the media without BAP. Biological activity was determined from the increase in fresh callus weight after four weeks of cultivation. Five replicates were prepared for each cytokinin concentration and the entire test was repeated twice. […] Relative activity of the compound at this concentration was calculated (Tab. 15). The activity obtained for 10^−5 M 6-benzylaminopurine (BAP) was postulated as 100%. The cytokinin bases to be tested were dissolved in dimethylsulfoxide (DMSO) and the solution brought up to 10^−3 M with distilled water. The mesylate salts were dissolved directly in distilled water.

[3] = tested on: MCF-7 (breast adenocarcinoma); assay: In vitro cytotoxicity, Calcein AM assay, MCF7; format: cell-based; settings: 3-day Calcein-AM assay
Source text: (§1) Because toxic compounds adversely affect cell metabolic processes, many standard cytotoxicity assays are based on measuring the rate of metabolism of various artificial substrates. The resulting product is then quantified, for example, by spectrometry. Assays can be easily modified for use in 96-well plates, A microtiter assay based on the quantification of Calcein AM metabolism was used to evaluate the cytotoxicity of cytokinins, for example meta-topolin, ortho-topolin, kinetin, BAP or its mesylate salts, but also a number of other cytokinin mesylate derivatives according to the invention. The test is widely used in drug screening programs and in chemosensitivity testing. In living cells, Calcein AM is enzymatically hydrolyzed and the accumulation of the resulting calcein is manifested by green fluorescence. […] These cells were maintained in standard DMEM or RPMI medium (Sigma, MO, USA) supplemented with heat-inactivated fetal bovine serum (10%) with 2 mM L-glutamine and penicillin-streptomycin (1%) under standard cell culture conditions (37° C., 5% CO2 in a humid environment) and subcultured two or three times a week using a standard trypsinization procedure. Approximately 10,000 cells in 80 μl of medium were seeded in a 96-well microtiter plate. After 12 hours of incubation, the compounds to be tested were added in 20 μl aliquots. Control cultures were treated with DMSO alone. […] After 72 hours of incubation, Calcein AM solution (Molecular Probes) was added to a final concentration of 1 μg/ml and the cells were incubated for another hour.
(§2) Cytoxicity of compounds was tested on panel of cell lines of different histogenetic and species origin.

[4] = tested on: K562 (chronic myeloid leukemia); assay: In vitro cytotoxicity, Calcein AM assay, K-562; format: cell-based; settings: 3-day Calcein-AM assay
Source text: as §1, §2

[5] = tested on: HL-60 (promyelocytic, leukemia); assay: In vitro cytotoxicity, Calcein AM assay, HL60; format: cell-based; settings: 3-day Calcein-AM assay
Source text: as §1, §2

[6] = tested on: CEM (T-lymphoblastic leukemia); assay: In vitro cytotoxicity, Calcein AM assay, CEM; format: cell-based; settings: 3-day Calcein-AM assay
Source text: as §1, §2

HOS (human osteosarcoma) = assay: In vitro cytotoxicity, Calcein AM assay, HOS; format: cell-based; settings: 3-day Calcein-AM assay
Source text: as §1, §2

[7] = tested on: Spring barley (variety Francin); assay: Field trial: grain yield and productive tillers of spring barley after foliar spray; format: in vivo; settings: 5 uMol
Protocol: Spring barley (variety Francin) was treated in 2019 at the locality in Olomouc, sprayed with substances—marked BAP (benzylaminopurine), meta-topolin mesylate and BAP mesylate. The seed was 3.5 million germinating seeds, the experiment was established in 5 randomized replicates for each variant, the control was an untreated variant. The experiment was performed according to the GEP (Good Experimental Practice) methodology, the size of individual plots was 10 m^2. The application of the substances was carried out at a rate of 300 l/ha, in the growth phase BBCH 31-33 (beginning of peeling).

[8] = application BBCH 31-33, untreated control = 100

CS(=O)(=O)O.Fc1cc(F)cc(CNc2ncnc3nc[nH]c23)c1 [3.5diFBAP mesylate] was tested, and the “activity (%) [10^−4 mol · l^−1 BAP = 100%]” value [1] was 168% and the “concentration with highest activity” value [1] was 10^−5 mol · l^−1.
For CS(=O)(=O)O.Clc1cccc(CNc2ncnc3nc[nH]c23)c1 [3ClBAP mesylate, 6-(3-chlorobenzylamino)purine mesylate], the “activity (%) [10^−5 mol · l^−1 BAP = 100%]” value [2] was 101% and the “activity (%) [10^−4 mol · l^−1 BAP = 100%]” value [1] was 82%.
CS(=O)(=O)O.Fc1cccc(CNc2ncnc3nc[nH]c23)c1 [3FBAP mesylate, 6-(3-fluorobenzylamino)purine mesylate] was tested, and the “activity (%) [10^−5 mol · l^−1 BAP = 100%]” value [2] was 137%, the IC50 ([3]; mesylate) was greater than 167 µM and the IC50 ([4]; mesylate) was 136 µM. For the same compound, the “activity (%) [10^−4 mol · l^−1 BAP = 100%]” value [1] was 210%.
Clc1ccc(CNc2ncnc3nc[nH]c23)cc1 [4ClBAP] gave an IC50 [5] greater than 167 µM, an IC50 [6] greater than 167 µM and an IC50 [3] greater than 167 µM. It also gave an IC50 (HOS (human osteosarcoma)) greater than 167 µM and an IC50 [4] greater than 167 µM.
CS(=O)(=O)O.Fc1ccc(CNc2ncnc3nc[nH]c23)cc1 [4FBAP mesylate, 6-(4-fluorobenzylamino)purine mesylate] was tested, and the “activity (%) [10^−5 mol · l^−1 BAP = 100%]” value [2] was 126% and the “activity (%) [10^−4 mol · l^−1 BAP = 100%]” value [1] was 98%.
Work on COc1ccc(CNc2ncnc3nc[nH]c23)cc1 [4MeOBAP mesylate, 6-(4-methoxybenzylamino)purine mesylate] yielded an IC50 ([4]; mesylate) of 118 µM.
Fc1ccc(CNc2ncnc3nc[nH]c23)c(F)c1 [6-(2.4-difluorobenzylamino)purine (2.4diFBAP)] was tested, and the “activity (%) [10^−4 mol · l^−1 BAP = 100%]” value [1] was 139% and the “concentration with highest activity” value [1] was 10^−5 mol · l^−1.
For Fc1cc(F)cc(CNc2ncnc3nc[nH]c23)c1 [6-(3.5-difluorobenzylamino)purine], the “activity (%) [10^−4 mol · l^−1 BAP = 100%]” value [1] was 156% and the “concentration with highest activity” value [1] was 10^−5 mol · l^−1.
C/C(=C/CNc1ncnc2nc[nH]c12)CO [Cis-zeatin (cZ), Cis-zeatin] gave an IC50 [5] greater than 167 µM, an IC50 [6] greater than 167 µM and an IC50 [3] greater than 167 µM. For the same compound, the IC50 (HOS (human osteosarcoma)) was greater than 167 µM.
C/C(=C/CNc1ncnc2[nH]cnc12)CO [cZ mesylate, (Z)-4-((9H-Purin Ylamino)-2-Methylbut-2-En-1-ol) Methanesulphonate] showed an IC50 [6] greater than 167 µM and an IC50 [3] greater than 167 µM.
For CS(=O)(=O)O.Oc1cccc(CNc2ncnc3[nH]cnc23)c1 [m-topolin mesylate], the Length of plants ([7]; application BBCH 31-33) was 83.1 cm, the “Medium tillers (number)” value ([7]; application BBCH 31-33) was 1.25 and the “Number of spikes per square meter” value ([7]; application BBCH 31-33) was 721.6. The SUM of tillers ([7]; application BBCH 31-33) was 5.5, the “Strong tillers (number)” value ([7]; application BBCH 31-33) was 2.45 and the “Weak tillers (number)” value ([7]; application BBCH 31-33) was 1.8. For the same compound, the “Grain yield (t/ha) at 14% humidity” value ([7]; application BBCH 31-33, spring barley) was 8.01 t/ha, the “Grain yield, % compared to control” value [7, 8] was 108.03% and the “Length of plants, % compared to control” value [7, 8] was 100.36%. The “Medium tillers, % compared to control” value [7, 8] was 59.52%, the “Number of spikes per square meter, % compared to control” value [7, 8] was 106.62% and the “SUM of tillers, % compared to control” value [7, 8] was 95.65%. For the same compound, the “Strong tillers, % compared to control” value [7, 8] was 136.11% and the “Weak tillers, % compared to control” value [7, 8] was 97.3%.
